Several values for one entry are separate records, joined by “and”; a condition that tells them apart may be missing. Equal values may be shown once. Toxic doses and inconclusive results are not listed. No stated cut-off is given here; in the data, active means T/C of 150% or more; inactive means T/C below 125%.
Tested on: L1210 leukemia ip in BDF1 mice, survival T/C
Assay: NCI In Vivo Anticancer Drug Screen. Data for tumor model L1210 Leukemia (intraperitoneal) in B6D2F1 (BDF1) mice
Conditions: endpoint: mean survival time, higher = longer survival
How it was run: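 Value reflects the ratio of survival in compound-treated mice to survival in vehicle-treated controls, with both groups carrying the same transplanted tumor.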

[1] = dose: 100.0 mg/kg/injection, schedule: Q04DX002 (ip), vehicle: saline with Tween-80
[2] = dose: 200.0 mg/kg/injection, schedule: Q04DX002 (ip), vehicle: saline with Tween-80
[3] = dose: 400.0 mg/kg/injection, schedule: Q04DX002 (ip), vehicle: saline with Tween-80

Measured: T/C

CN(C)CCCN1c2ccccc2Sc2ccc(Cl)cc21
inactive: dose: 0.77 mg/kg/injection, schedule: Q03HX024 (ip), vehicle: saline 104 % of control | dose: 0.78 mg/kg/injection, schedule: Q04DX024 (oral), vehicle: saline 98 % of control | dose: 1.55 mg/kg/injection, schedule: Q03HX024 (ip), vehicle: saline 109 % of control | dose: 1.56 mg/kg/injection, schedule: Q04DX003 (ip), vehicle: saline 101 % of control | dose: 1.56 mg/kg/injection, schedule: Q04DX024 (oral), vehicle: saline 90 % of control | dose: 2.0 mg/kg/injection, schedule: Q01DX009 (ip), vehicle: saline 95 % of control and 113 % of control | dose: 2.5 mg/kg/injection, schedule: Q01DX015 (ip), vehicle: saline 103 % of control | dose: 3.1 mg/kg/injection, schedule: Q03HX024 (ip), vehicle: saline 102 % of control | dose: 3.12 mg/kg/injection, schedule: Q01DX009 (ip), vehicle: saline 111 % of control | dose: 3.12 mg/kg/injection, schedule: Q04DX003 (ip), vehicle: saline 101 % of control | dose: 3.12 mg/kg/injection, schedule: Q04DX024 (oral), vehicle: saline 104 % of control | dose: 4.0 mg/kg/injection, schedule: Q01DX009 (ip), vehicle: saline 93 % of control and 106 % of control | dose: 5.0 mg/kg/injection, schedule: Q01DX015 (ip), vehicle: saline 105 % of control | dose: 6.2 mg/kg/injection, schedule: Q03HX024 (ip), vehicle: saline 109 % of control | dose: 6.25 mg/kg/injection, schedule: Q04DX003 (ip), vehicle: saline 102 % of control and 103 % of control | dose: 8.0 mg/kg/injection, schedule: Q01DX009 (ip), vehicle: saline 106 % of control and 120 % of control | dose: 8.0 mg/kg/injection, schedule: Q01DX015 (ip), vehicle: saline 104 % of control | dose: 10.0 mg/kg/injection, schedule: Q01DX009 (ip), vehicle: saline 111 % of control | dose: 10.0 mg/kg/injection, schedule: Q01DX015 (ip), vehicle: saline 105 % of control | dose: 12.0 mg/kg/injection, schedule: Q01DX015 (ip), vehicle: saline 115 % of control | dose: 12.4 mg/kg/injection, schedule: Q03HX024 (ip), vehicle: saline 116 % of control | dose: 12.5 mg/kg/injection, schedule: Q01DX001 (ip), vehicle: saline 94 % of control | dose: 12.5 mg/kg/injection, schedule: Q01DX009 (ip), vehicle: saline 110 % of control and 102 % of control | dose: 12.5 mg/kg/injection, schedule: Q04DX003 (ip), vehicle: saline 109 % of control [middle of 4 runs] | dose: 16.0 mg/kg/injection, schedule: Q01DX009 (ip), vehicle: saline 87 % of control | dose: 18.0 mg/kg/injection, schedule: Q01DX015 (ip), vehicle: saline 121 % of control | dose: 18.75 mg/kg/injection, schedule: Q01DX001 (ip), vehicle: saline 113 % of control and 123 % of control | dose: 18.75 mg/kg/injection, schedule: Q01DX009 (ip), vehicle: saline 101 % of control | dose: 20.0 mg/kg/injection, schedule: Q01DX009 (ip), vehicle: saline 108 % of control | dose: 20.0 mg/kg/injection, schedule: Q01DX Z (ip), vehicle: methylcellulose (MC) 108 % of control | dose: 20.0 mg/kg/injection, schedule: Q04DX003 (ip), vehicle: saline 115 % of control | dose: 25.0 mg/kg/injection, schedule: Q01DX001 (ip), vehicle: saline 101 % of control | dose: 25.0 mg/kg/injection, schedule: Q01DX009 (ip), vehicle: saline 105 % of control | dose: 25.0 mg/kg/injection, schedule: Q04DX003 (ip), vehicle: saline 109 % of control [middle of 4 runs] | dose: 26.0 mg/kg/injection, schedule: Q04DX003 (ip), vehicle: saline 121 % of control | dose: 27.0 mg/kg/injection, schedule: Q01DX015 (ip), vehicle: saline 106 % of control | dose: 30.0 mg/kg/injection, schedule: Q01DX Z (ip), vehicle: methylcellulose (MC) 117 % of control | dose: 37.5 mg/kg/injection, schedule: Q01DX001 (ip), vehicle: saline 120 % of control | dose: 37.5 mg/kg/injection, schedule: Q01DX009 (ip), vehicle: saline 120 % of control | dose: 40.0 mg/kg/injection, schedule: Q01DX015 (ip), vehicle: saline 112 % of control | dose: 40.0 mg/kg/injection, schedule: Q04DX003 (ip), vehicle: saline 106 % of control | dose: 45.0 mg/kg/injection, schedule: Q01DX Z (ip), vehicle: methylcellulose (MC) 100 % of control | dose: 50.0 mg/kg/injection, schedule: Q01DX001 (ip), vehicle: saline 108 % of control | dose: 50.0 mg/kg/injection, schedule: Q01DX009 (ip), vehicle: saline 121 % of control | dose: 50.0 mg/kg/injection, schedule: Q04DX003 (ip), vehicle: saline 101 % of control and 113 % of control | dose: 60.0 mg/kg/injection, schedule: Q01DX015 (ip), vehicle: saline 117 % of control | dose: 67.5 mg/kg/injection, schedule: Q01DX Z (ip), vehicle: methylcellulose (MC) 99 % of control | dose: 75.0 mg/kg/injection, schedule: Q04DX003 (ip), vehicle: saline 116 % of control | dose: 90.0 mg/kg/injection, schedule: Q01DX015 (ip), vehicle: saline 104 % of control | dose: 100.0 mg/kg/injection, schedule: Q01DX009 (ip), vehicle: saline 89 % of control | dose: 100.0 mg/kg/injection, schedule: Q04DX003 (ip), vehicle: saline 99 % of control

Cc1[nH]c(=O)[nH]c(=O)c1NCCO
inactive: dose: 100.0 mg/kg/injection, schedule: Q01DX009 (ip), vehicle: water 91 % of control | dose: 100.0 mg/kg/injection, schedule: Q04DX003 (ip), vehicle: water 101 % of control | dose: 200.0 mg/kg/injection, schedule: Q01DX009 (ip), vehicle: water 96 % of control | dose: 200.0 mg/kg/injection, schedule: Q04DX003 (ip), vehicle: water 103 % of control | dose: 400.0 mg/kg/injection, schedule: Q01DX009 (ip), vehicle: water 102 % of control | dose: 400.0 mg/kg/injection, schedule: Q04DX003 (ip), vehicle: water 103 % of control

Nc1ccccc1SC1CC(=O)N(c2cccc3ccccc23)C1=O (stereo unspecified)
inactive: dose: 100.0 mg/kg/injection, schedule: Q04DX003 (ip), vehicle: Klucel (hydroxypropylcellulose) (HPC) 89 % of control | dose: 400.0 mg/kg/injection, schedule: Q04DX003 (ip), vehicle: Klucel (hydroxypropylcellulose) (HPC) 90 % of control

O=C(N/N=C/c1ccc(O)cc1)c1ccccc1NC(=O)C1CC1
inactive: dose: 100.0 mg/kg/injection, schedule: Q01DX009 (ip), vehicle: Klucel (hydroxypropylcellulose) (HPC) 104 % of control | dose: 200.0 mg/kg/injection, schedule: Q01DX009 (ip), vehicle: Klucel (hydroxypropylcellulose) (HPC) 89 % of control | dose: 400.0 mg/kg/injection, schedule: Q01DX009 (ip), vehicle: Klucel (hydroxypropylcellulose) (HPC) 93 % of control

COc1ccc(CC2=NCCN2)cc1
inactive: dose: 25.0 mg/kg/injection, schedule: Q04DX003 (ip), vehicle: saline with Tween-80 91 % of control | dose: 50.0 mg/kg/injection, schedule: Q04DX003 (ip), vehicle: saline with Tween-80 93 % of control | dose: 100.0 mg/kg/injection, schedule: Q04DX003 (ip), vehicle: saline with Tween-80 101 % of control and 89 % of control

Nc1ccc(C(=O)O)cc1S(=O)(=O)O
inactive: dose: 100.0 mg/kg/injection, schedule: Q01DX001 (ip), vehicle: Klucel (hydroxypropylcellulose) (HPC) 102 % of control

CCOC(=O)c1c(C)nc(C)c(C(=O)OCC)c1C
inactive: dose: 100.0 mg/kg/injection, schedule: Q01DX001 (ip), vehicle: saline with Tween-80 101 % of control | dose: 200.0 mg/kg/injection, schedule: Q01DX001 (ip), vehicle: saline with Tween-80 99 % of control | dose: 400.0 mg/kg/injection, schedule: Q01DX001 (ip), vehicle: saline with Tween-80 95 % of control

OCC(O)C(O)C(O)C(O)CN=Cc1ccccc1O (stereo unspecified)
inactive: [1] 109 % of control | [2] 95 % of control | [3] 103 % of control

CC(O)c1cccc(Br)c1 (stereo unspecified)
inactive: [1] 100 % of control | [2] 90 % of control | [3] 90 % of control

CCC(=O)/C=C/c1ccc([N+](=O)[O-])cc1
inactive: dose: 100.0 mg/kg/injection, schedule: Q04DX003 (ip), vehicle: other 101 % of control | dose: 200.0 mg/kg/injection, schedule: Q04DX003 (ip), vehicle: other 93 % of control | dose: 400.0 mg/kg/injection, schedule: Q04DX003 (ip), vehicle: other 93 % of control

O=C(CSSCC(=O)Nc1ccccc1O)Nc1ccccc1O
inactive: dose: 100.0 mg/kg/injection, schedule: Q01DX001 (ip), vehicle: other 88 % of control | dose: 200.0 mg/kg/injection, schedule: Q01DX001 (ip), vehicle: other 93 % of control | dose: 400.0 mg/kg/injection, schedule: Q01DX001 (ip), vehicle: other 89 % of control
